Reference: ChEMBL document CHEMBL1629464, “Aldehyde oxidase: an enzyme of emerging importance in drug discovery” (J Med Chem, 2010)

How the values were obtained:
Aldehyde oxidase 1 [1] = target: T1, Aldehyde oxidase 1 (Mus musculus, UniProt O54754); test: Inhibition of mouse aldehyde oxidase
T1 sequence (O54754 whole entry): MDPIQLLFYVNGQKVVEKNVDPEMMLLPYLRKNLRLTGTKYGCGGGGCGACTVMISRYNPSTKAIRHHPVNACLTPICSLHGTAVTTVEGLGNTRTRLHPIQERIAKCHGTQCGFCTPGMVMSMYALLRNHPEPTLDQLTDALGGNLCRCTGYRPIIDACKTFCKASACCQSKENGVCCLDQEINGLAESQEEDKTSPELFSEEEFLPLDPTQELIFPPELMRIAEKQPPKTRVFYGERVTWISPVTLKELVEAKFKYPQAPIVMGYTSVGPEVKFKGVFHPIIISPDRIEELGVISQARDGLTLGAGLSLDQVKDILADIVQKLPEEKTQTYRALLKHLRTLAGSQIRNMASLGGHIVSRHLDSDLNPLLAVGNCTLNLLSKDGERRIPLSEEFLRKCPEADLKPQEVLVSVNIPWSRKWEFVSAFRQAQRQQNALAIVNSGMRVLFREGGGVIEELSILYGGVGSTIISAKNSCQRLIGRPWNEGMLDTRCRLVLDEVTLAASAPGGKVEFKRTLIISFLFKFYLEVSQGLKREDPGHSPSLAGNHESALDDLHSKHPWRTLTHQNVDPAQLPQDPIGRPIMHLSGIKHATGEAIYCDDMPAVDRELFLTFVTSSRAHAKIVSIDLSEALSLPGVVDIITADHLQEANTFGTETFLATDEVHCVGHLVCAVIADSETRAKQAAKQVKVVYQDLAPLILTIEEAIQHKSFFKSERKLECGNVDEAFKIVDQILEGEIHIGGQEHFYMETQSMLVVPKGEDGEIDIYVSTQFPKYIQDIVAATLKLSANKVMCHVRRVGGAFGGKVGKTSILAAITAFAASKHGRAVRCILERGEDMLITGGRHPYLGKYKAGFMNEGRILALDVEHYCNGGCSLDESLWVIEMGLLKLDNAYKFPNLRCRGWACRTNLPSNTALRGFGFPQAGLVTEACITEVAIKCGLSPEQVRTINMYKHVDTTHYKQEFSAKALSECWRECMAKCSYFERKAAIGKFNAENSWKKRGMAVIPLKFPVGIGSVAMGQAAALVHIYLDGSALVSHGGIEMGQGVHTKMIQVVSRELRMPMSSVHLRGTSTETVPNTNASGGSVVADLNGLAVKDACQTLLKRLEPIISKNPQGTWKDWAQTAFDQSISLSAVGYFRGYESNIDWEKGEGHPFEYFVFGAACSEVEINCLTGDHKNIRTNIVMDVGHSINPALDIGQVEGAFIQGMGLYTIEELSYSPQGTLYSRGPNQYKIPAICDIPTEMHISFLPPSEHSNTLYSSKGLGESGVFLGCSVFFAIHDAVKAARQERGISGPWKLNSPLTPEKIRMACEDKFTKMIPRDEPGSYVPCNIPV

Aldehyde oxidase 1 [2] = target: T2, Aldehyde oxidase 1 (Rattus norvegicus, UniProt Q9Z0U5); test: Inhibition of rat aldehyde oxidase
T2 sequence (Q9Z0U5 whole entry): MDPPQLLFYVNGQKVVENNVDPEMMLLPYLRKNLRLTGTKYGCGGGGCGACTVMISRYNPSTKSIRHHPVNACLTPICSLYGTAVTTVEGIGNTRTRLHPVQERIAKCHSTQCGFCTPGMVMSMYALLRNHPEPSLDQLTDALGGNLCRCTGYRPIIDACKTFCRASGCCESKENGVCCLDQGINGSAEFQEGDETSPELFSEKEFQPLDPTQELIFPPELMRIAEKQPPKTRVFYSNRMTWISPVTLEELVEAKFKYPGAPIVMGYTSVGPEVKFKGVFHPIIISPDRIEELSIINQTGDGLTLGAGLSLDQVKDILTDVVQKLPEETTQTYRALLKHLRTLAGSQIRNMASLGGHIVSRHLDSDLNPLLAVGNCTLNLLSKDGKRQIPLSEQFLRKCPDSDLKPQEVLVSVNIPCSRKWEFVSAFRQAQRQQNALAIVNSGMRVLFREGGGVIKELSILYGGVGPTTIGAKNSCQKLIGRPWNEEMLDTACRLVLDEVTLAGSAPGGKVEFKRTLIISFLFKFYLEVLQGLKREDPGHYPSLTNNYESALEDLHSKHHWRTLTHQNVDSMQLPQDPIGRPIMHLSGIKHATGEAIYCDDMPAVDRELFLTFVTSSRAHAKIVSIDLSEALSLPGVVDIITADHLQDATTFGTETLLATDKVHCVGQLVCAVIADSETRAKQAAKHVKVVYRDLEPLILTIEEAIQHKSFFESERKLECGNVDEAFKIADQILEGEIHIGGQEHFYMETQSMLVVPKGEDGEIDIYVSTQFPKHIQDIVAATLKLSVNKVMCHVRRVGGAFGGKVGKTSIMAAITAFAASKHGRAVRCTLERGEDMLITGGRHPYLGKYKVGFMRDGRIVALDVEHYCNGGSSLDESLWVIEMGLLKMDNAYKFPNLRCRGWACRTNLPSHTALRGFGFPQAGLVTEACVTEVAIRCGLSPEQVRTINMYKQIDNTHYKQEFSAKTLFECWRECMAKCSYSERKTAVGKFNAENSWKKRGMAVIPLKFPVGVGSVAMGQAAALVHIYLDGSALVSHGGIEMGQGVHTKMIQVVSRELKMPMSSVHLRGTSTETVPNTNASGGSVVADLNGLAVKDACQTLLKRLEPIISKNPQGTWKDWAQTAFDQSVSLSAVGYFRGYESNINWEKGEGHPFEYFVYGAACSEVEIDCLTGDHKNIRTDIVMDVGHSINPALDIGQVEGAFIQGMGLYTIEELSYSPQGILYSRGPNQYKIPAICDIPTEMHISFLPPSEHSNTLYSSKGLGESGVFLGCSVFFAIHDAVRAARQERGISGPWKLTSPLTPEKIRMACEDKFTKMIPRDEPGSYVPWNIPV

| IC50 (Aldehyde oxidase 1 [1]) [µM] | IC50 (Aldehyde oxidase 1 [2]) [µM] | SMILES | Ki (Aldehyde oxidase 1 [2]) [µM] |
| --- | --- | --- | --- |
| 6.1 | 0.74 | OCCN1CCN(CCCN2c3ccccc3Sc3ccc(Cl)cc32)CC1 [PERPHENAZINE] | – |
| – | – | C[C@]12CC[C@@H]3c4ccc(O)cc4CC[C@H]3[C@@H]1CC[C@@H]2O [ESTRADIOL] | 3 |
